In assay [1] the test system is Pseudomonas aeruginosa UI-18: Wild-type (PA-7). The experiment in a line: MIC determination (CLSI), strain PA-7. It is filed as cell-based. The settings on record: strain PA-7, unit assumed. As for the experimental part:
(§1) The in vitro antibacterial activity of compounds described in the Examples was evaluated by minimum inhibitory concentration (MIC) testing according to Clinical and Laboratory Standards Institute (CLSI, formerly NCCLS) guidelines. See: Clinical and Laboratory Standards Institute. Methods for Dilution Antimicrobial Susceptibility Tests for Bacteria that Grow Aerobically; Approved Standard-Seventh Edition. CLSI document M7-A7 [ISBN 1-56238-587-9]. Clinical and Laboratory Standards Institute, 940 West Valley Road, Suite 1400, Wayne, Pa. 19087-1898 USA, 2006; also Clinical and Laboratory Standards Institute. Performance Standards for Antimicrobial Susceptibility Testing; Eighteenth Informational Supplement. CLSI document M100-S18 [ISBN1-56238-653-0].Clinical and Laboratory Standards Institute.
(§2) The following bacterial strains were used in these MIC determinations:
1) Pseudomonas aeruginosa UI-18: Wild-type, labeled as PA-7 in Tables 4, and 5;

Assay [2] has as its system Escherichia coli EC-1: VOGEL, mouse virulent. Put plainly: MIC determination (CLSI), strain EC-1. It counts as cell-based. The settings on record: strain EC-1, unit assumed. Here is the method:
as §1, §2
3) Escherichia coli EC-1: VOGEL, mouse virulent labeled as EC-1 in Tables 4 and 5;

Where [3] appears, read: generated in the same manner as in Table 4.

Where only a bound is given, the exact number is not on record here.

In assay [1], `CC(CCn1ccc(-c2ccc(OCC3CCCO3)cc2)cc1=O)(C(=O)NO)S(C)(=O)=O` (mixture of isomers) [Example 462] yielded a PA-7 (MIC) of 1 µg/mL. The EC-1 (MIC) in assay [2] was 0.5 µg/mL.

For the compound `CC1CC(=O)Nc2ccc(-c3ccn(CCC(C)(C(=O)NO)S(C)(=O)=O)c(=O)c3)cc21` (mixture of isomers) [Example 484], the PA-7 (MIC) in assay [1] was greater than 64 µg/mL. Besides, the EC-1 (MIC) in assay [2] is greater than 64 µg/mL.

`CC(CCn1ccc(-c2ccc(C(F)(F)CO)cc2)cc1=O)(C(=O)NO)S(C)(=O)=O` (centres unmarked) [Example 69, 4-{4-[4-(1,1-difluoro-2-hydroxyethyl)phenyl]-2-oxopyridin-1(2H)-yl}-N-hydroxy-2-methyl-2-(methylsulfonyl)butanamide] yielded a PA-7 (MIC) in assay [1] (setting [3]) of 16 µg/mL. This compound had an EC-1 (MIC) in assay [2] (setting [3]) of 4 µg/mL.

Turning to `CC(CCn1ccc(-c2ccc(O)c(F)c2)cc1=O)(C(=O)NO)S(C)(=O)=O` (centres unmarked) [Example 70, 4-[4-(3-fluoro-4-hydroxyphenyl)-2-oxopyridin-1(2H)-yl]-N-hydroxy-2-methyl-2-(methylsulfonyl)butanamide], the PA-7 (MIC) in assay [1] (setting [3]) was greater than 64 µg/mL. Also, the EC-1 (MIC) in assay [2] (setting [3]) is greater than 64 µg/mL.

For `CC(CCn1ccc(-c2ccc(OCCCN3CCOCC3)cc2)cc1=O)(C(=O)NO)S(C)(=O)=O` (centres unmarked) [Example 71, N-hydroxy-2-methyl-2-(methylsulfonyl)-4-{4-[4-(3-morpholin-4-ylpropoxy)phenyl]-2-oxopyridin-1(2H)-yl}butanamide], the PA-7 (MIC) in assay [1] (setting [3]) turned out to be 4 µg/mL. In assay [2] (setting [3]), this compound yielded an EC-1 (MIC) of 2 µg/mL.

In assay [1] (setting [3]), `CC(CCn1ccc(-c2ccc(CO)cc2)cc1=O)(C(=O)NO)S(C)(=O)=O` (centres unmarked) [Example 72, N-hydroxy-4-{4-[4-(hydroxymethyl)phenyl]-2-oxopyridin-1(2H)-yl}-2-methyl-2-(methylsulfonyl)butanamide] gave a PA-7 (MIC) of 16 µg/mL. Besides, the EC-1 (MIC) in assay [2] (setting [3]) was greater than 64 µg/mL.

As to `CC(CCn1ccc(-c2ccc(C(=O)CO)cc2)cc1=O)(C(=O)NO)S(C)(=O)=O` (centres unmarked) [Example 73, 4-[4-(4-glycoloylphenyl)-2-oxopyridin-1(2H)-yl]-N-hydroxy-2-methyl-2-(methylsulfonyl)butanamide], in assay [1] (setting [3]), the PA-7 (MIC) is 64 µg/mL. Besides, the EC-1 (MIC) in assay [2] (setting [3]) is greater than 64 µg/mL.

For the compound `CC(CCn1ccc(-c2ccc(OCCN3CCCC3)cc2)cc1=O)(C(=O)NO)S(C)(=O)=O` (centres unmarked) [Example 74], the PA-7 (MIC) in assay [1] (setting [3]) is greater than 64 µg/mL. The same compound yielded an EC-1 (MIC) in assay [2] (setting [3]) greater than 64 µg/mL.

In assay [1] (setting [3]), `CC(CCn1ccc(-c2ccc(OCCCCO)cc2)cc1=O)(C(=O)NO)S(C)(=O)=O` (centres unmarked) [Example 75, N-hydroxy-4-{4-[4-(4-hydroxybutoxy)phenyl]-2-oxopyridin-1(2H)-yl}-2-methyl-2-(methylsulfonyl)butanamide] had a PA-7 (MIC) of 4 µg/mL. This compound returned an EC-1 (MIC) in assay [2] (setting [3]) of 2 µg/mL.

For `CC(CCn1ccc(-c2ccc(OCCO)c(F)c2)cc1=O)(C(=O)NO)S(C)(=O)=O` (centres unmarked) [Example 76, 4-{4-[3-fluoro-4-(2-hydroxyethoxy)phenyl]-2-oxopyridin-1(2H)-yl}-N-hydroxy-2-methyl-2-(methylsulfonyl)butanamide], the PA-7 (MIC) in assay [1] (setting [3]) was 32 µg/mL. The compound further had an EC-1 (MIC) in assay [2] (setting [3]) of 16 µg/mL.

In assay [1] (setting [3]), `CC(CCn1ccc(-c2ccc(OCCCN3CCCCC3)cc2)cc1=O)(C(=O)NO)S(C)(=O)=O` (centres unmarked) [Example 77] displayed a PA-7 (MIC) of 64 µg/mL. The EC-1 (MIC) in assay [2] (setting [3]) amounted to 64 µg/mL.

`CC(CCn1ccc(-c2ccc(OCCCN3CCCC3)cc2)cc1=O)(C(=O)NO)S(C)(=O)=O` (centres unmarked) [Example 78] yielded a PA-7 (MIC) in assay [1] (setting [3]) greater than 64 µg/mL. The same compound registered an EC-1 (MIC) in assay [2] (setting [3]) greater than 64 µg/mL.

On to `CC(CCn1ccc(-c2ccc3[nH]ccc3c2)cc1=O)(C(=O)NO)S(C)(=O)=O` (centres unmarked) [Example 79], for which the PA-7 (MIC) in assay [1] (setting [3]) is 4 µg/mL. Besides, the EC-1 (MIC) in assay [2] (setting [3]) came to 4 µg/mL.

For `C/C(=N\O)c1ccc(-c2ccn(CCC(C)(C(=O)NO)S(C)(=O)=O)c(=O)c2)cc1` (centres unmarked) [Example 80, N-hydroxy-4-[4-{4-[(1E)-N-hydroxyethanimidoyl]phenyl}-2-oxopyridin-1(2H)-yl]-2-methyl-2-(methylsulfonyl)butanamide], the PA-7 (MIC) in assay [1] (setting [3]) is 32 µg/mL. For the same compound, the EC-1 (MIC) in assay [2] (setting [3]) was determined as 8 µg/mL.

Compound `CC(CCn1ccc(-c2ccc(OCCCN3CCSCC3)cc2)cc1=O)(C(=O)NO)S(C)(=O)=O` (centres unmarked) [Example 81, N-hydroxy-2-methyl-2-(methylsulfonyl)-4-{2-oxo-4-[4-(3-thiomorpholin-4-ylpropoxy)phenyl]pyridin-1(2H)-yl}butanamide] gave a PA-7 (MIC) in assay [1] (setting [3]) of 4 µg/mL. Also, the EC-1 (MIC) in assay [2] (setting [3]) was 2 µg/mL.

In assay [1] (setting [3]), `CC(CCn1ccc(-c2ccc(OCCCN3CCS(=O)(=O)CC3)cc2)cc1=O)(C(=O)NO)S(C)(=O)=O` (centres unmarked) [Example 82, 4-[4-{4-[3-(1,1-dioxidothiomorpholin-4-yl)propoxy]phenyl}-2-oxopyridin-1(2H)-yl]-N-hydroxy-2-methyl-2-(methylsulfonyl)butanamide] gave a PA-7 (MIC) of 32 µg/mL. The same compound registered an EC-1 (MIC) in assay [2] (setting [3]) of 8 µg/mL.

`CC(CCn1ccc(-c2ccc(OCCCN3CCC(O)CC3)cc2)cc1=O)(C(=O)NO)S(C)(=O)=O` (centres unmarked) [Example 83, N-hydroxy-4-[4-{4-[3-(4-hydroxypiperidin-1-yl)propoxy]phenyl}-2-oxopyridin-1(2H)-yl]-2-methyl-2-(methylsulfonyl)butanamide]: the PA-7 (MIC) in assay [1] (setting [3]) was 16 µg/mL. The EC-1 (MIC) in assay [2] (setting [3]) came to 32 µg/mL.

As to `CC(CCn1ccc(-c2ccc(OCCCN3CC(O)C3)cc2)cc1=O)(C(=O)NO)S(C)(=O)=O` (centres unmarked) [Example 84, N-hydroxy-4-[4-{4-[3-(3-hydroxyazetidin-1-yl)propoxy]phenyl}-2-oxopyridin-1(2H)-yl]-2-methyl-2-(methylsulfonyl)butanamide], in assay [1] (setting [3]), the PA-7 (MIC) was found to be 32 µg/mL. Also, the EC-1 (MIC) in assay [2] (setting [3]) is greater than 64 µg/mL.

Consider `CC(CCn1ccc(-c2ccc(OCCO)cc2F)cc1=O)(C(=O)NO)S(C)(=O)=O` (centres unmarked) [Example 85, 4-{4-[2-fluoro-4-(2-hydroxyethoxy)phenyl]-2-oxopyridin-1(2H)-yl}-N-hydroxy-2-methyl-2-(methylsulfonyl)butanamide], for which the PA-7 (MIC) in assay [1] (setting [3]) is 16 µg/mL. This compound yielded an EC-1 (MIC) in assay [2] (setting [3]) of 16 µg/mL.

Consider `CC(CCn1ccc(-c2ccc(OCCCN3CCNC(=O)C3)cc2)cc1=O)(C(=O)NO)S(C)(=O)=O` (centres unmarked) [Example 86, N-hydroxy-2-methyl-2-(methylsulfonyl)-4-[2-oxo-4-{4-[3-(3-oxopiperazin-1-yl)propoxy]phenyl}pyridin-1(2H)-yl]butanamide], for which, in assay [1] (setting [3]), the PA-7 (MIC) was 32 µg/mL. The compound further gave an EC-1 (MIC) in assay [2] (setting [3]) of 16 µg/mL.

For `CN1CCN(CCCOc2ccc(-c3ccn(CCC(C)(C(=O)NO)S(C)(=O)=O)c(=O)c3)cc2)CC1` (centres unmarked) [Example 87], the PA-7 (MIC) in assay [1] (setting [3]) is 32 µg/mL. In assay [2] (setting [3]), the EC-1 (MIC) is 64 µg/mL.

In turn, `CC(CCn1ccc(-c2ccc(OCCCc3cccnc3)cc2)cc1=O)(C(=O)NO)S(C)(=O)=O` (centres unmarked) [Example 88] returned a PA-7 (MIC) in assay [1] (setting [3]) of 2 µg/mL. The EC-1 (MIC) in assay [2] (setting [3]) amounted to 0.25 µg/mL.

With `CC(CCn1ccc(-c2ccc(OCCCc3ccncc3)cc2)cc1=O)(C(=O)NO)S(C)(=O)=O` (centres unmarked) [Example 89], in assay [1] (setting [3]), the PA-7 (MIC) came to 2 µg/mL. The compound also displayed an EC-1 (MIC) in assay [2] (setting [3]) of 0.25 µg/mL.

As for `COc1cccc(-c2ccn(CCC(C)(C(=O)NO)S(C)(=O)=O)c(=O)c2)c1F` (centres unmarked) [Example 90], in assay [1] (setting [3]), the PA-7 (MIC) turned out to be 2 µg/mL. This compound also yielded an EC-1 (MIC) in assay [2] (setting [3]) of 0.5 µg/mL.

On to `CC(CCn1ccc(-c2cc3ccccc3[nH]2)cc1=O)(C(=O)NO)S(C)(=O)=O` (centres unmarked) [Example 91], for which, in assay [1] (setting [3]), the PA-7 (MIC) is 16 µg/mL. Also, the EC-1 (MIC) in assay [2] (setting [3]) is 4 µg/mL.

These data come from patent US8846933B2, “N-link hydroxamic acid derivatives useful as antibacterial agents” (Pfizer Inc., priority 2009, dated 2014).
